Test results published in patent US8415469B2, “Compounds and methods for kinase modulation, and indications therefor” (Plexxikon Inc., priority 2005, dated 2013).

What was measured:
Format in all cases: biochemical
Akt3 = Akt3 (Homo sapiens, UniProt Q9Y243); experiment: AlphaScreen kinase assay, Akt3; details: read-out: IC50, activity toward kinase Akt3
Text: (§1) AlphaScreen assay was used to screen additional kinases. The assay is similarly dependent on the phosphorylation of a peptide substrate. In this assay, an antibody that recognizes phosphorylated substrate is bound to an acceptor bead. The peptide substrate is attached to biotin, which binds to a donor head that contains streptavidin. Thus phosphorylated substrate is bound by antibody and streptavidin, bringing the donor and acceptor heads into close proximity when kinase is not inhibited. The donor produces singlet oxygen which results in emission from the acceptor when they are in close proximity. Conversely, when kinase is inhibited, the donor and acceptor beads are not associated and the emission from the acceptor is reduced.
(§2) AlphaScreen assays were done using compounds dissolved in DMSO to a concentration of 20 mM. The compounds were diluted accordingly to the desired final concentrations in each sample well, using 1:3 serial dilution for a total of 8 concentration points.

c-Raf-1 = molecular target: T1, c-Raf-1 (Homo sapiens, UniProt P04049); experiment: AlphaScreen kinase assay, c-Raf-1; details: read-out: IC50, activity toward kinase c-Raf-1
T1 construct: purchased Upstate Biotechnology
Method: (§3) AlphaScreen assays were done using compounds dissolved in DMSO to a concentration of 20 mM. The compounds were diluted accordingly to the desired final concentrations in each sample well, using 1:3 serial dilution for a total of 8 concentration points. Plates were prepared such that each kinase reaction is 20 μl in 1× kinase buffer, 5% DMSO and 10 μM ATP. After incubation of the kinase reaction for 1 hour at room temperature, 5 μl of donor beads in stop buffer (50 mM EDTA in 1× kinase buffer) was added, the sample was mixed and incubated for 20 minutes at room temperature before adding 5 μl of acceptor beads in stop buffer. The samples were incubated for 60 minutes at room temperature and the signal per well was read on AlphaQuest reader.

Fms = molecular target: T2, Fms (Homo sapiens, UniProt P07333); experiment: AlphaScreen kinase assay, Fms; details: read-out: IC50, activity toward kinase Fms
T2 construct: purchased Upstate Biotechnology

B-Raf V600E = molecular target: T3, B-Raf V600E (Homo sapiens, UniProt P15056, V600E); experiment: AlphaScreen kinase assay, B-Raf V600E; details: read-out: IC50, activity toward kinase B-Raf V600E
T3 construct: P4254. pFastBacBD-CDC37 BRAF D437-K722-X, V600E; His6 with pFastBac HT leader (TEV site) (N); made in house; host or cells: Sf9 (baculovirus; chaperone CDC37 co-expressed)

Kit = molecular target: T4, Kit (Homo sapiens, UniProt P10721); experiment: AlphaScreen kinase assay, Kit; details: read-out: IC50, activity toward kinase Kit
T4 construct: P1332.N6 BI PTP KIT M552-K948-X COD; His6 (N); made in house; host or cells: E. coli (PTP1B co-expressed)

B-Raf = molecular target: T5, B-Raf (Homo sapiens, UniProt P15056); experiment: AlphaScreen kinase assay, B-Raf; details: read-out: IC50, activity toward kinase B-Raf
T5 construct: purchased Upstate Biotechnology

FGFR1 = molecular target: T6, FGFR1 (Homo sapiens, UniProt P11362, C488A/C584S); experiment: AlphaScreen kinase assay, FGFR1; details: read-out: IC50, activity toward kinase FGFR
T6 construct: P1351.pET N6 BI-PTP FGFR A458-E765-X C488A, C584S; made in house; host or cells: E. coli (PTP1B co-expressed)

Src = molecular target: T7, Src (Homo sapiens, UniProt P12931); experiment: AlphaScreen kinase assay, Src; details: read-out: IC50, activity toward kinase Src
T7 construct: P1144. pET-N6 BI-PTP SRC V86-L536-X; made in house

Flt1 = molecular target: T8, Flt1 (Homo sapiens, UniProt P17948); experiment: AlphaScreen kinase assay, Flt1; details: read-out: IC50, activity toward kinase Flt1
T8 construct: P1826.pETN6 BI-PTP FLT1 M799-D1165-X WT; His6 (N); made in house; host or cells: E. coli (PTP1B co-expressed)
T8 sequence (P17948 with tags, fused parts or gaps): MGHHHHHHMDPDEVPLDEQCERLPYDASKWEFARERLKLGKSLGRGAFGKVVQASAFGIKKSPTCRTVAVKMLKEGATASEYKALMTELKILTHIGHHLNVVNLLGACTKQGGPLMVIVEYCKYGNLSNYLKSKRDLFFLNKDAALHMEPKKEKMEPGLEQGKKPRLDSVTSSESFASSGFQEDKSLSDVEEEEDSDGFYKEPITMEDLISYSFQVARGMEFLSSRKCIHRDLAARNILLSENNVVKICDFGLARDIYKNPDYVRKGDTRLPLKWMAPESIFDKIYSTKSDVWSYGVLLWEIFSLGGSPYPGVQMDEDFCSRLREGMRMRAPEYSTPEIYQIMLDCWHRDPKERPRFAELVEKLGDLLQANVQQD

Ret = molecular target: T9, Ret (Homo sapiens, UniProt P07949); experiment: AlphaScreen kinase assay, Ret; details: read-out: IC50, activity toward kinase Ret
T9 construct: P1378.pET-SF BI-PTP RET H661-R1012 HIS; made in house
T9 sequence (P07949 with tags, fused parts or gaps): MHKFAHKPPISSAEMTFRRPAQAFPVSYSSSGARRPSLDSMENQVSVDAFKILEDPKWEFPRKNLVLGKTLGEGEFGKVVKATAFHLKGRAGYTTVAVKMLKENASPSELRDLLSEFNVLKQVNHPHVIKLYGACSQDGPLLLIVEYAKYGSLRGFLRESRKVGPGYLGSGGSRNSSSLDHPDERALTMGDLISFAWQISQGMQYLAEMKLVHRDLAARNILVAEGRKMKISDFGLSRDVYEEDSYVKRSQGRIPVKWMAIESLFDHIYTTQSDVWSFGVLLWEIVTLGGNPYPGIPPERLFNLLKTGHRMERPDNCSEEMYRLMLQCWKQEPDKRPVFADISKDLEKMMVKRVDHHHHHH

Jnk3 = molecular target: T10, Jnk3 (Homo sapiens, UniProt P53779); experiment: AlphaScreen kinase assay, Jnk3; details: read-out: IC50, activity toward kinase Jnk3
T10 construct: purchased Upstate Biotechnology

Jnk1 = molecular target: T11, Jnk1 (Homo sapiens, UniProt P45983); experiment: AlphaScreen kinase assay, Jnk1; details: read-out: IC50, activity toward kinase Jnk1
T11 construct: purchased Upstate Biotechnology
Method: as §3

Zap70 = molecular target: T12, Zap70 (Homo sapiens, UniProt P43403); experiment: AlphaScreen kinase assay, Zap70; details: read-out: IC50, activity toward kinase Zap70
T12 construct: P1868.pFastBac1 ZAP70 D327-G606 HIS, WT; His7 (HHHHHHH) (C); made in house
T12 sequence (P43403 with tags, fused parts or gaps): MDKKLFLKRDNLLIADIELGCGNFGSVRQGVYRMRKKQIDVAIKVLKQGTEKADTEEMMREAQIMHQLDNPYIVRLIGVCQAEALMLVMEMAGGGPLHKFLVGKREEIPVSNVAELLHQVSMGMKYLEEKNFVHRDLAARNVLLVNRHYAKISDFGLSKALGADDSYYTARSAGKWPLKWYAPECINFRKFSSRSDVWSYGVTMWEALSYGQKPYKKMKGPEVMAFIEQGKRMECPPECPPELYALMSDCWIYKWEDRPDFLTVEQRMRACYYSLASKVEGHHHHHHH
Text: as §1, §2

MAP4K4 = MAP4K4 (Homo sapiens, UniProt O95819); experiment: AlphaScreen kinase assay, MAP4K4; details: read-out: IC50, activity toward kinase MAP4K4
Kdr = molecular target: T13, Kdr (Homo sapiens, UniProt P35968); experiment: Z'-Lyte FRET kinase assay (Invitrogen), Kdr; details: read-out: IC50, activity toward kinase Kdr
T13 construct: purchased Invitrogen (assay run by Invitrogen)

Stk6 = molecular target: T14, Stk6 (Homo sapiens, UniProt O14965); experiment: Z'-Lyte FRET kinase assay (Invitrogen), Stk6; details: read-out: IC50, activity toward kinase Stk6
T14 construct: purchased Invitrogen (Carlsbad, Calif.), screening service
T14 sequence (O14965 1-403): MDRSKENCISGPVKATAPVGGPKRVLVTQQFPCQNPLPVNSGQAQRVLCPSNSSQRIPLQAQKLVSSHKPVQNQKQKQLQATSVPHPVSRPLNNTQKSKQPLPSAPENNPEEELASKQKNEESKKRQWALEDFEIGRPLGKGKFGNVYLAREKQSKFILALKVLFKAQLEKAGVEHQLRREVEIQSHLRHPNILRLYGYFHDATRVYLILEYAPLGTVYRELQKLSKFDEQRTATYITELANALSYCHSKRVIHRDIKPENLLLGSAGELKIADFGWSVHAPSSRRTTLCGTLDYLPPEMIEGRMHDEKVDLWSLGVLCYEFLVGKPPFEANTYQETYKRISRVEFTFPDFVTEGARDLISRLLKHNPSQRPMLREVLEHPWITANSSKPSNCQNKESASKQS

Yes = molecular target: T15, Yes (Homo sapiens, UniProt P07947); experiment: Z'-Lyte FRET kinase assay (Invitrogen), Yes; details: read-out: IC50, activity toward kinase Yes
T15 construct: purchased Invitrogen (Carlsbad, Calif.), screening service
Summary of the method: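 10 μM ATP, 2 μM peptide, 1% DMSO final; HEPES pH 7.5 buffer with MgCl2/EGTA/BRIJ-35. Kinase rxn 1 h RT, protease development 1 h RT, stop, read donor/acceptor ratio. Compound titrated.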

T10 sequence (P53779 whole entry): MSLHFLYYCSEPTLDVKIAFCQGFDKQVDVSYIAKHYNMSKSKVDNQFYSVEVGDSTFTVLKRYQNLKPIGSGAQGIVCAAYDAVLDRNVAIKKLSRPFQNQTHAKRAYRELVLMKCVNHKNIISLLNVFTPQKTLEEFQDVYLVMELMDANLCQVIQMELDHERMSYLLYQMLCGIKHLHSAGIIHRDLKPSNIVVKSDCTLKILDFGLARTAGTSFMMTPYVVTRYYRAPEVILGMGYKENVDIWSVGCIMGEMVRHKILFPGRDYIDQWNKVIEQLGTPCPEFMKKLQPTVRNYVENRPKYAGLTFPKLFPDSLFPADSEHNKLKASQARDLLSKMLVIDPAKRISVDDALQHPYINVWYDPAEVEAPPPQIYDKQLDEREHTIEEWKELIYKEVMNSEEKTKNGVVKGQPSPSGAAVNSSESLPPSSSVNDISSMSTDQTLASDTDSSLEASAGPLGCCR
T5 sequence (P15056 whole entry): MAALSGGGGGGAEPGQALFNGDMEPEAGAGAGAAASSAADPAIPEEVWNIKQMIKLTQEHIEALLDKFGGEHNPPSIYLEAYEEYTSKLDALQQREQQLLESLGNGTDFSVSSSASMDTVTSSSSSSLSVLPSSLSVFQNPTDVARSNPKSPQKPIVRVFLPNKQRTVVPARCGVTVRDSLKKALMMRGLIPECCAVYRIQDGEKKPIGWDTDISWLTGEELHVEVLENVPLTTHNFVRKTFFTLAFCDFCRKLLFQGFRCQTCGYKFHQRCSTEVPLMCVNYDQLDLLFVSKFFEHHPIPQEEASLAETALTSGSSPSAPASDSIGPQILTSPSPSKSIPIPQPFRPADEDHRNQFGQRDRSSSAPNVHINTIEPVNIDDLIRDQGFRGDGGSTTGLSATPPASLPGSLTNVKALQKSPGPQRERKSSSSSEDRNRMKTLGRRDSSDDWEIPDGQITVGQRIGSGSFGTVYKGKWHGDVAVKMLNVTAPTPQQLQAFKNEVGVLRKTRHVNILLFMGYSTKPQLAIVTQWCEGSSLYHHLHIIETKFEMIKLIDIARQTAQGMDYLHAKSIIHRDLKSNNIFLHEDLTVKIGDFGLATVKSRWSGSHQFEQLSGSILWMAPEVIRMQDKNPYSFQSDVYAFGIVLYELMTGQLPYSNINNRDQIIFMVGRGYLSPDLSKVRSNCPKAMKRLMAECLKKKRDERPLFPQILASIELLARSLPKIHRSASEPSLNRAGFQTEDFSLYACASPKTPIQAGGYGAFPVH
Akt3, sequence (Q9Y243 whole entry): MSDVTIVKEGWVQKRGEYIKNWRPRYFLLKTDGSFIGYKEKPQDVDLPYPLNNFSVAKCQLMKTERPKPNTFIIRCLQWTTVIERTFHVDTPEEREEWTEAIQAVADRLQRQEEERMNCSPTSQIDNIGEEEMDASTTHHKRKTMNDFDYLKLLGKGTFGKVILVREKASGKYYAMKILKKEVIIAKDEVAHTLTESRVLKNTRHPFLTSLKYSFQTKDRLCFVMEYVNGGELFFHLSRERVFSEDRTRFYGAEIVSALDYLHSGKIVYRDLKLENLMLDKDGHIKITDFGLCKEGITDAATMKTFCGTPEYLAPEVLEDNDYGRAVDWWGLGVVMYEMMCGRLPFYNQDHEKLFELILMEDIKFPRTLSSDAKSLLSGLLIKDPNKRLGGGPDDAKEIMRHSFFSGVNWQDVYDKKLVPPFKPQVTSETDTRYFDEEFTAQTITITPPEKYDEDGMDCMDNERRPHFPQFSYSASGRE
T1 sequence (P04049 whole entry): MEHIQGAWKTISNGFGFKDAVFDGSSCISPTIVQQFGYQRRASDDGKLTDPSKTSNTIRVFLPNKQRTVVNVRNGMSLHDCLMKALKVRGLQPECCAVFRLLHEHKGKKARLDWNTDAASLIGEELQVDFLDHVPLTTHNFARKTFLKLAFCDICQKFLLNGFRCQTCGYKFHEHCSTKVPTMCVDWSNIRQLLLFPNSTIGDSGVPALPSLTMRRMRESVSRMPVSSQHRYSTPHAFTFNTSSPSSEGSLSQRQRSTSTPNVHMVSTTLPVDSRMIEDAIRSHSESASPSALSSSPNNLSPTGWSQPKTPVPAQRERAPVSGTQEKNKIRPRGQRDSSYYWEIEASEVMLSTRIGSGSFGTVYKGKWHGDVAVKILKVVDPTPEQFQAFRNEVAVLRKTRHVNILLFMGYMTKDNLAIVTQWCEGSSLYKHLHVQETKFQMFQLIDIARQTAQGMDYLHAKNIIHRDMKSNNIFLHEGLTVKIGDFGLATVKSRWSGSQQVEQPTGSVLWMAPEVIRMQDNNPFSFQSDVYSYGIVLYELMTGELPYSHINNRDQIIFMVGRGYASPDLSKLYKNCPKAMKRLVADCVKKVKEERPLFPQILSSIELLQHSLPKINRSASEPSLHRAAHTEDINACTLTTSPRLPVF
T6 sequence (P11362 458-765 C488A/C584S): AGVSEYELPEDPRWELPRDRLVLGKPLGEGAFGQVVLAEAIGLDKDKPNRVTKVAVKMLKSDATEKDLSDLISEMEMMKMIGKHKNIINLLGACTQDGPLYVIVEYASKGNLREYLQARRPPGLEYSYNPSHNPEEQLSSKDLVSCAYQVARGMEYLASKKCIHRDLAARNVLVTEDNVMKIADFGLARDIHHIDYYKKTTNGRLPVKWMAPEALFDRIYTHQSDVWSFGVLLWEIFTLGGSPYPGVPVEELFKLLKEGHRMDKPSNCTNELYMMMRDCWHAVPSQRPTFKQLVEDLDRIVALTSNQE
T3 sequence (P15056 with tags, fused parts or gaps V600E): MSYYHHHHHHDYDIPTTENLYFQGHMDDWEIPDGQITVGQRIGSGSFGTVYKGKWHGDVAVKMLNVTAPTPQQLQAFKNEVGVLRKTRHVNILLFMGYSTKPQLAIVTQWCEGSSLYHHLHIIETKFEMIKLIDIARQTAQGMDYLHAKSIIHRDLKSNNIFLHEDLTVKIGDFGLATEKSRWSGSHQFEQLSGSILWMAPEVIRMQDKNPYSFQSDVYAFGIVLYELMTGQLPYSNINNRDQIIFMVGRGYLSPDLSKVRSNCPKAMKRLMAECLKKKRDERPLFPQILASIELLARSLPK
T4 sequence (P10721 with tags, fused parts or gaps): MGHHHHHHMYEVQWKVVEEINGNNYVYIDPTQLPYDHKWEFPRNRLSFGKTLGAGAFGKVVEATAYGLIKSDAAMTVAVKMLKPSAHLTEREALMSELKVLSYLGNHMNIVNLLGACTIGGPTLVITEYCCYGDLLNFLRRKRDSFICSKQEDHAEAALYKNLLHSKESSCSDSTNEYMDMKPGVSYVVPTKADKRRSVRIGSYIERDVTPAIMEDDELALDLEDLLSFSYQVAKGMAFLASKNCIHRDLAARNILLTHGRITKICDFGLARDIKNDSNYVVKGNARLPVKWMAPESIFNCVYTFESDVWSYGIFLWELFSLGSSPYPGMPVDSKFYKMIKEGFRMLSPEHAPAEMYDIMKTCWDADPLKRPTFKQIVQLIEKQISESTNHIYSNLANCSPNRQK
T7 sequence (P12931 with tags, fused parts or gaps): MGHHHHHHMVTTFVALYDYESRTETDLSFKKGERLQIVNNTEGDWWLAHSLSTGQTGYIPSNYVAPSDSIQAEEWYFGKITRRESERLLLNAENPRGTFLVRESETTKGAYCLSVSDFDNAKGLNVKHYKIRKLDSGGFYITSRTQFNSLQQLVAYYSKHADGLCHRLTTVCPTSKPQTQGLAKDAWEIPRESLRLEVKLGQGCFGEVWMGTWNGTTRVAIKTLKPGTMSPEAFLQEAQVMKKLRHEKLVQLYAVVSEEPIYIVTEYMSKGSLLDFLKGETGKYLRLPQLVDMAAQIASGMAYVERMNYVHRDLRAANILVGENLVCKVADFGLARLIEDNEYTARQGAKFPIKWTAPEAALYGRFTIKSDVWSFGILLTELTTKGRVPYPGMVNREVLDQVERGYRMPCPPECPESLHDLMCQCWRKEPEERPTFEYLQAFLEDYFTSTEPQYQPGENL
T2 sequence (P07333 20-972): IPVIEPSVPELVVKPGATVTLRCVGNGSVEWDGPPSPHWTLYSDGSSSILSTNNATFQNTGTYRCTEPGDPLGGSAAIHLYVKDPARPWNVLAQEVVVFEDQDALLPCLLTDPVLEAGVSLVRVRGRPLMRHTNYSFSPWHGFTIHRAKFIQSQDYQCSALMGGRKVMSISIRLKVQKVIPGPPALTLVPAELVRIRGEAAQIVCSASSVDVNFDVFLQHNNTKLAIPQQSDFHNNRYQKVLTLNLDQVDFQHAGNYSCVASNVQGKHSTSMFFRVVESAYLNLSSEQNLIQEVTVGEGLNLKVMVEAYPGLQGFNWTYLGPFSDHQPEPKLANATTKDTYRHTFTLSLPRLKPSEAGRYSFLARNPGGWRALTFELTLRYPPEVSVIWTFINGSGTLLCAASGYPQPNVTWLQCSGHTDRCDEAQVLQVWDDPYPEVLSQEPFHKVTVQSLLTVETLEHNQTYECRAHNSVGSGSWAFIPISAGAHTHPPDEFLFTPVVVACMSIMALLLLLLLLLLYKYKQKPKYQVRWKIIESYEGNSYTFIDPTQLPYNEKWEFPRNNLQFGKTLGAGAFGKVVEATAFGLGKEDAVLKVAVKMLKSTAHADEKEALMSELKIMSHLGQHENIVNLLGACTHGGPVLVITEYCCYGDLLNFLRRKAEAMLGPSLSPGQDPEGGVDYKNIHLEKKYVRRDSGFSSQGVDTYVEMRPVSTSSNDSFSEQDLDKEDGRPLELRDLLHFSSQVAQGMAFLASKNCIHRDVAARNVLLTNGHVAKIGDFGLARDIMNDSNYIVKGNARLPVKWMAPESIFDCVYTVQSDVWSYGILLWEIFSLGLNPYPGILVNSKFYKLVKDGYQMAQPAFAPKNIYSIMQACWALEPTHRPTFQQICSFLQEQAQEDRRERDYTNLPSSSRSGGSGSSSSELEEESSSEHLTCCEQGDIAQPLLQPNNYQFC

## Fc1ccc(Nc2ccnc3[nH]ccc23)cc1 [Compound P-1145]
Akt3
  IC50: ≤ 10 µM
c-Raf-1
  IC50: ≤ 10 µM

## O=C(c1c(F)ccc(NS(=O)(=O)N2CCCCC2)c1F)c1c[nH]c2ncccc12 [Compound P-0952, Piperidine-1-sulfonic acid [2,4-difluoro-3-(1H-pyrrolo[2,3-b]pyridine-3-carbonyl)-phenyl]-amide]
Fms
  IC50: ≤ 10 µM
B-Raf V600E
  IC50: ≤ 10 µM
Kit
  IC50: ≤ 10 µM
Akt3
  IC50: ≤ 10 µM
B-Raf
  IC50: ≤ 10 µM
FGFR1
  IC50: ≤ 10 µM
c-Raf-1
  IC50: ≤ 10 µM
Src
  IC50: ≤ 10 µM

## c1ccc(Nc2ccnc3[nH]ccc23)cc1 [Compound P-1224]
Akt3
  IC50: ≤ 10 µM

## CC(=O)c1cccc(Nc2ccnc3[nH]ccc23)c1 [Compound P-1027]
Flt1
  IC50: ≤ 10 µM
Akt3
  IC50: ≤ 10 µM
B-Raf
  IC50: ≤ 10 µM
FGFR1
  IC50: ≤ 10 µM
c-Raf-1
  IC50: ≤ 10 µM

## O=C(NCc1ccccc1)c1ccc(-c2c[nH]c3ncccc23)cc1 [Compound P-0278]
Flt1
  IC50: ≤ 10 µM
Akt3
  IC50: ≤ 10 µM

## COC(c1ccc(NCc2ccc(Cl)cc2)nc1)c1c[nH]c2ncccc12 (stereo not shown) [Compound P-0307]
B-Raf V600E
  IC50: ≤ 10 µM
Ret
  IC50: ≤ 10 µM
Akt3
  IC50: ≤ 10 µM
B-Raf
  IC50: ≤ 10 µM
c-Raf-1
  IC50: ≤ 10 µM

## Clc1ccc(Nc2cnc3[nH]ccc3c2)cc1 [Compound P-1082]
B-Raf V600E
  IC50: ≤ 10 µM
Kit
  IC50: ≤ 10 µM
Flt1
  IC50: ≤ 10 µM
Akt3
  IC50: ≤ 10 µM
Jnk3
  IC50: ≤ 10 µM

## CN(C)c1ccc(Nc2ccnc3[nH]ccc23)cc1 [Compound P-0890]
Akt3
  IC50: ≤ 10 µM
c-Raf-1
  IC50: ≤ 10 µM

## Cc1ccc(Nc2ccnc3[nH]ccc23)cc1[N+](=O)[O-] [Compound P-0995]
Akt3
  IC50: ≤ 10 µM

## CCOC(c1ccc(N(Cc2ccc(Cl)cc2)C(=O)OC(C)(C)C)nc1)c1c[nH]c2ncccc12 (stereo not shown) [Compound P-1139]
B-Raf V600E
  IC50: ≤ 10 µM
Akt3
  IC50: ≤ 10 µM

## COc1ccc(Nc2ccnc3[nH]ccc23)cc1 [Compound P-1155]
Akt3
  IC50: ≤ 10 µM

## COc1ccc(Nc2cnc3[nH]ccc3c2)cc1 [Compound P-1095]
Akt3
  IC50: ≤ 10 µM

## COc1ccc(Nc2cnc3[nH]ccc3c2)cc1Cl [Compound P-1021]
Jnk1
  IC50: ≤ 10 µM
B-Raf V600E
  IC50: ≤ 10 µM
Kit
  IC50: ≤ 10 µM
Flt1
  IC50: ≤ 10 µM
Akt3
  IC50: ≤ 10 µM
Jnk3
  IC50: ≤ 10 µM
FGFR1
  IC50: ≤ 10 µM
Src
  IC50: ≤ 10 µM

## CSc1cccc(Nc2cnc3[nH]ccc3c2)c1 [Compound P-1150]
Akt3
  IC50: ≤ 10 µM

## Fc1cccc(Nc2ccnc3[nH]ccc23)c1 [Compound P-1047]
Akt3
  IC50: ≤ 10 µM
c-Raf-1
  IC50: ≤ 10 µM

## c1cc(Nc2ccc(-c3cnco3)cc2)c2cc[nH]c2n1 [Compound P-1147]
Flt1
  IC50: ≤ 10 µM
Akt3
  IC50: ≤ 10 µM

## c1ccc2c(Cc3c[nH]c4ncccc34)cccc2c1 [Compound P-0442]
Zap70
  IC50: ≤ 10 µM
FGFR1
  IC50: ≤ 10 µM
MAP4K4
  IC50: ≤ 10 µM

## O=C(c1ccc(NCC2CC2)nc1)c1c[nH]c2ncccc12 [Compound P-0202]
Kdr
  IC50: ≤ 10 µM
MAP4K4
  IC50: ≤ 10 µM
Stk6
  IC50: ≤ 10 µM
Yes
  IC50: ≤ 10 µM

## c1cc2cc(Nc3ccc4ncsc4c3)cnc2[nH]1 [Compound P-1040]
Akt3
  IC50: ≤ 10 µM

## COc1cccc(C(=O)c2c[nH]c3nccc(-c4cccc(C(N)=O)c4)c23)c1 [Compound P-0329]
Ret
  IC50: ≤ 10 µM
Akt3
  IC50: ≤ 10 µM
FGFR1
  IC50: ≤ 10 µM

## c1cc(Nc2ccc3[nH]ccc3c2)c2cc[nH]c2n1 [Compound P-0940]
Akt3
  IC50: ≤ 10 µM

## COc1ccc(Nc2ccnc3[nH]ccc23)cc1Cl [Compound P-0936]
Akt3
  IC50: ≤ 10 µM

## c1cc(Nc2ccc3c(c2)OCO3)c2cc[nH]c2n1 [Compound P-1062]
Akt3
  IC50: ≤ 10 µM

## c1cnc2ccc(Nc3cnc4[nH]ccc4c3)cc2c1 [Compound P-1034]
Akt3
  IC50: ≤ 10 µM

## Oc1ccc(Nc2ccnc3[nH]ccc23)cc1 [Compound P-1172]
Akt3
  IC50: ≤ 10 µM

## CCCc1ccc(Nc2cnc3[nH]ccc3c2)cc1 [Compound P-1043]
B-Raf V600E
  IC50: ≤ 10 µM
Akt3
  IC50: ≤ 10 µM

## c1cc2cc(Nc3ccc4c(c3)OCCO4)cnc2[nH]1 [Compound P-1022]
B-Raf V600E
  IC50: ≤ 10 µM
Akt3
  IC50: ≤ 10 µM
Jnk3
  IC50: ≤ 10 µM

## CSc1ccc(Nc2ccnc3[nH]ccc23)cc1 [Compound P-0990]
Akt3
  IC50: ≤ 10 µM

## CC(C)c1ccc(Nc2cnc3[nH]ccc3c2)cc1 [Compound P-1039]
Akt3
  IC50: ≤ 10 µM

## CSc1ccc(Nc2cnc3[nH]ccc3c2)cc1 [Compound P-1158]
Akt3
  IC50: ≤ 10 µM

## Cc1cccc(Nc2ccnc3[nH]ccc23)c1 [Compound P-1060]
Akt3
  IC50: ≤ 10 µM
